Measurements from US20210038607A1, “OXADIAZOLYLTHIOPHENE DERIVATIVES USEFUL AS HISTONE DEACETYLASE INHIBITORS” (Karus Therapeutics Limited, priority 2018, published 2021).

Legend:
Human HDAC9 = target: T1, Human HDAC9 (Homo sapiens, UniProt Q9UKV0); assay: HDAC9 biochemical assay, class IIa-specific substrate; details: read-out: HDAC Isoform IC50 (nM) 9
T1 construct: amino acids 604-1066 with C-terminal His tag; His (C); host or cells: baculovirus expression system
Procedure: (§1) Activity against all zinc-dependent HDACs 1 to 11 was assessed by using an acetylated AMC-labeled peptide substrate. The substrate RHKK(Ac)AMC was used for HDAC1, HDAC2, HDAC3, HDAC6 and HDAC10; the substrate used for HDAC8 was RHK(Ac)K(Ac)AMC. Activity against the class IIa HDACs (HDAC4, 5, 7, 9) and HDAC11 was determined using a class IIa-specific substrate, BOC-Lys(trifluoroacetyl)-AMC (“Trifluoroacetyl Lysine”; see Lahm et al, 2007, PNAS, 104, 17335-17340). All assays were based on the AMC-labeled substrate and developer combination.
(§2) The protocol involved a two-step reaction: first, the substrate with the acetylated lysine side chain is incubated with a sample containing HDAC activity, to produce the deacetylated products, which are then digested in the second step by the addition of developer to produce the fluorescent signal proportional to the amount of deacetylated substrates.
Human HDAC9 (GenBank Accession No. NM_178423), amino acids 604-1066 with C-terminal His tag, MW=50.7 kDa, expressed in baculovirus expression system.
(§3) Assay Buffer: 50 mM Tris-HCl, pH8.0, 137 mM NaCl, 2.7 mM KCl, 1 mM MgC2. Before use, 1 mg/mL BSA and DMSO are added.
(§4) For class IIa HDACs, assay buffer is the same.
HDAC9: 0.06 ng/ul HDAC9 and 50 μM Class IIa HDAC substrate are in the reaction buffer with 1% DMSO final. Incubate for 30 minutes at room temperature.
(§5) Stage 1: Deacetylation of substrate by incubation of HDAC enzymes with compounds
(§6) Stage 2: Development by addition of Developer to digest the deacetylated substrate, and generate the fluorescent colour; Detection: 360/460 Ex/Em

Recombinant human HDAC6 = target: T2, Recombinant human HDAC6 (Homo sapiens, UniProt Q9UBN7); assay: HDAC6 biochemical assay, AMC-labeled peptide substrate; details: HDAC6; read-out: HDAC Isoform IC50 (nM) 6
T2 construct: full length, MW=159 kDa; GST (N); host or cells: Sf9 insect cells (baculovirus)
T2 sequence (Q9UBN7 1-1215): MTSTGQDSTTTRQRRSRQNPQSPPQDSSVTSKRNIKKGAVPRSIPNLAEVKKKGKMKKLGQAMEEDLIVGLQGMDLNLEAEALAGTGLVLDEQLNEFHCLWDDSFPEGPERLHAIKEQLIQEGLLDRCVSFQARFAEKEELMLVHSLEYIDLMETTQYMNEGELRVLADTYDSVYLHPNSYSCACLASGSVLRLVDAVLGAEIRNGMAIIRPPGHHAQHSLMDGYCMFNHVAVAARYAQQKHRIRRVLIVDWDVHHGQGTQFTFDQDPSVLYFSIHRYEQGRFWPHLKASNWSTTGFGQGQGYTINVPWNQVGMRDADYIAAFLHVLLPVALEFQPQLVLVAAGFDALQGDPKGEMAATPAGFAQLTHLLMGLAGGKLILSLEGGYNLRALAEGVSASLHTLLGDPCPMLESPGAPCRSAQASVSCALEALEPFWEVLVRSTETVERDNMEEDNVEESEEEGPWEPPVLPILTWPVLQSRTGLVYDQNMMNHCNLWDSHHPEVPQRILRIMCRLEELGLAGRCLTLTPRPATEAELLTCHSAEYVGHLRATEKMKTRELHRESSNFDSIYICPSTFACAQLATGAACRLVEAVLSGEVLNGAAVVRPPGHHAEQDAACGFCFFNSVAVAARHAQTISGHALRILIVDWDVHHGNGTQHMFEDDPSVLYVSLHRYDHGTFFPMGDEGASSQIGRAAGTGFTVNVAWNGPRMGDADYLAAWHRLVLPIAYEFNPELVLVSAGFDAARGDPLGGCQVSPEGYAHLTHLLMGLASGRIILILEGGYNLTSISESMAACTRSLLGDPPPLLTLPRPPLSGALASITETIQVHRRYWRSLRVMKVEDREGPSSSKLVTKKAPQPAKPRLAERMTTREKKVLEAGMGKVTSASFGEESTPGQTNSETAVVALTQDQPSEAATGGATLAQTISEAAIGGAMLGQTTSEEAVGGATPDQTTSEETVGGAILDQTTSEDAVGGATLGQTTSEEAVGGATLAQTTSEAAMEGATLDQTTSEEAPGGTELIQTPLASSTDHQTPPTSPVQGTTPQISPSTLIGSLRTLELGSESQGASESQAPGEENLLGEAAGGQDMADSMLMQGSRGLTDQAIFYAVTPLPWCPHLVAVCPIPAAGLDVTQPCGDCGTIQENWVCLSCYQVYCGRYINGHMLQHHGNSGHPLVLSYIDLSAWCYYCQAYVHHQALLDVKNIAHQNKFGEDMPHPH
Procedure: as §1, §2
Recombinant human HDAC6 (GenBank Accession No. BC069243), full length, MW=159 kDa, was expressed by baculovirus in Sf9 insect cells using an N-terminal GST tag.
as §3
HDAC6: 0.3 ng/ul HDAC6 and 50 μM HDAC substrate are in the reaction buffer with 1% DMSO final. Incubate for 1 hours at 30° C.
as §5, §6

Human HDAC1 = target: T3, Human HDAC1 (Homo sapiens, UniProt Q13547); assay: HDAC1 biochemical assay, AMC-labeled peptide substrate; details: read-out: HDAC Isoform IC50 (nM) 1
T3 construct: full length with C-terminal His-tag and C-terminal FLAG-tag; His (C); FLAG (C); host or cells: baculovirus expression system
T3 sequence (Q13547 whole entry, canonical isoform): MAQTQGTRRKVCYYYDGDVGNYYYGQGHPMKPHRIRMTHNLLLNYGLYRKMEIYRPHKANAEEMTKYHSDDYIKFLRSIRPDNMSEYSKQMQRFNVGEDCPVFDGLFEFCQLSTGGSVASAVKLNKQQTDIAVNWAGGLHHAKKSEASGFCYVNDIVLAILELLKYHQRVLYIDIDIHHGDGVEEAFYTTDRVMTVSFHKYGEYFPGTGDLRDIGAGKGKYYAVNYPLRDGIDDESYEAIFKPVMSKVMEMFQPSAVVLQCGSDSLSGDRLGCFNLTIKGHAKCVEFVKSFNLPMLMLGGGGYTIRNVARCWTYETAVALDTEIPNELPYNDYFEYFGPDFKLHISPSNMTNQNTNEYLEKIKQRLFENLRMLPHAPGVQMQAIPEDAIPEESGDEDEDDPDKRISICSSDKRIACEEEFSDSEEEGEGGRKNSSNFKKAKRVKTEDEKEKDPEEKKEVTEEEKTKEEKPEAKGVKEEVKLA
Procedure: as §1, §2
Human HDAC1 (GenBank Accession No. NM_004964), full length with C-terminal His-tag and C-terminal FLAG-tag, MW=56 kDa, expressed in baculovirus expression system.
as §3
HDAC1: 0.3 ng/ul HDAC1 and 50 μM HDAC substrate are in the reaction buffer with 1% DMSO final. Incubate for 1 hour at 30° C.
as §5, §6

Human HDAC7 = target: T4, Human HDAC7 (Homo sapiens, UniProt Q8WUI4); assay: HDAC7 biochemical assay, class IIa-specific substrate; details: read-out: HDAC Isoform IC50 (nM) 7
T4 construct: (a.a. 518-end) with N-terminal GST tag; GST (N); host or cells: baculovirus expression system
T4 sequence (Q8WUI4 518-952 limits assumed): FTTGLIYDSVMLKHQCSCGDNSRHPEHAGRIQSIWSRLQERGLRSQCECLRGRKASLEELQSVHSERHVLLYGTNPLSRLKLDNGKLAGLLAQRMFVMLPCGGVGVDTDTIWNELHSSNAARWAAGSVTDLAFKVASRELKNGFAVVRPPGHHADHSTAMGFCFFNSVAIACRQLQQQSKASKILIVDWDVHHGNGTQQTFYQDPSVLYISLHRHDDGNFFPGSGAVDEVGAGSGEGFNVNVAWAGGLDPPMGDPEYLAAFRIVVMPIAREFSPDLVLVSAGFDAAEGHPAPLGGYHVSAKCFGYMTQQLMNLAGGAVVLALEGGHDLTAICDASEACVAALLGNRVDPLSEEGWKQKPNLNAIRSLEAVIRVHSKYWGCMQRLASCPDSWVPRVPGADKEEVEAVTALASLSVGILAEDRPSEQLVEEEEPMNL
Procedure: as §1, §2
Human HDAC7 (GenBank Accession No. AY302468), (a.a. 518-end) with N-terminal GST tag, MW=78 kDa, expressed in baculovirus expression system.
as §3, §4
HDAC7: 0.001 ng/ul HDAC7 and 50 μM Class IIa HDAC substrate are in the reaction buffer with 1% DMSO final. Incubate for 30 minutes at room temperature.
as §5, §6

Human HDAC4 = target: T5, Human HDAC4 (Homo sapiens, UniProt P56524); assay: HDAC4 biochemical assay, class IIa-specific substrate; details: read-out: HDAC Isoform IC50 (nM) 4
T5 construct: amino acids 627-1085 with N-terminal GST tag; GST (N); host or cells: baculovirus expression system
T5 sequence (P56524 627-1084 limits assumed): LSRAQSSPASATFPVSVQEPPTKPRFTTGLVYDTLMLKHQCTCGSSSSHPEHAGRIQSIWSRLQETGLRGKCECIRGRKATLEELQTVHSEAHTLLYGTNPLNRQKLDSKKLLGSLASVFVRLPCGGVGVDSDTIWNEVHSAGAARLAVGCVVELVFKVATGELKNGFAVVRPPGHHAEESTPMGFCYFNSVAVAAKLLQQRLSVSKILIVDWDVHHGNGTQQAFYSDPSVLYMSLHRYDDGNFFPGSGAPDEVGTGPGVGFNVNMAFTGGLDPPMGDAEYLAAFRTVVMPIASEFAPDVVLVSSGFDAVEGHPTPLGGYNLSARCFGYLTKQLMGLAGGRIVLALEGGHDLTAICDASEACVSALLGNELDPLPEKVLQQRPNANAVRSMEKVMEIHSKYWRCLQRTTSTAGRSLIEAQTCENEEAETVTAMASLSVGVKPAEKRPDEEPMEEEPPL
Procedure: as §1, §2
Human HDAC4 (GenBank Accession No. NM_006037), amino acids 627-1085 with N-terminal GST tag, MW=75.2 kDa, expressed in baculovirus expression system.
as §3, §4
HDAC4: 0.004 ng/ul HDAC4 and 50 μM Class IIa HDAC substrate are in the reaction buffer with 1% DMSO final. Incubate for 30 minutes at room temperature.
as §5, §6

Human HDAC5 = target: T6, Human HDAC5 (Homo sapiens, UniProt Q9UQL6); assay: HDAC5 biochemical assay, class IIa-specific substrate; details: read-out: HDAC Isoform IC50 (nM) 5
T6 construct: full length with C-terminal His tag, MW=51.1 kDa; His (C); host or cells: baculovirus expression system
T6 sequence (Q9UQL6 656-1122 limits assumed): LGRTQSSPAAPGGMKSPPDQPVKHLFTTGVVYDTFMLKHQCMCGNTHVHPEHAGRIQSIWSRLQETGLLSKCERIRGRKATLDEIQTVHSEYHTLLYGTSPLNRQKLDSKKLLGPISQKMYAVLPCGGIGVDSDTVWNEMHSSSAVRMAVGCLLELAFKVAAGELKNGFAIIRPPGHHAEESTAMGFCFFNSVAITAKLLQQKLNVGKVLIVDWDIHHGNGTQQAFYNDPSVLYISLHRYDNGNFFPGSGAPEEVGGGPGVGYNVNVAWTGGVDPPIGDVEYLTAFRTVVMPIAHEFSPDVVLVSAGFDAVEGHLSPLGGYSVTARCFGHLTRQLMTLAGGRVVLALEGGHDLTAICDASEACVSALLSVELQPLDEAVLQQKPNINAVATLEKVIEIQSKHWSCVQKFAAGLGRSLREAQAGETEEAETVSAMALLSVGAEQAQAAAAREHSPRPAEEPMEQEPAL
Procedure: as §1, §2
Human HDAC5 (GenBank Accession No. NM_005474), full length with C-terminal His tag, MW=51.1 kDa, expressed in baculovirus expression system.
as §3, §4
HDAC5: 0.05 ng/ul HDAC5 and 50 μM Class IIa HDAC substrate are in the reaction buffer with 1% DMSO final. Incubate for 30 minutes at room temperature.
as §5, §6

T1 sequence (Q9UKV0 604-1066 isoform Q9UKV0-5): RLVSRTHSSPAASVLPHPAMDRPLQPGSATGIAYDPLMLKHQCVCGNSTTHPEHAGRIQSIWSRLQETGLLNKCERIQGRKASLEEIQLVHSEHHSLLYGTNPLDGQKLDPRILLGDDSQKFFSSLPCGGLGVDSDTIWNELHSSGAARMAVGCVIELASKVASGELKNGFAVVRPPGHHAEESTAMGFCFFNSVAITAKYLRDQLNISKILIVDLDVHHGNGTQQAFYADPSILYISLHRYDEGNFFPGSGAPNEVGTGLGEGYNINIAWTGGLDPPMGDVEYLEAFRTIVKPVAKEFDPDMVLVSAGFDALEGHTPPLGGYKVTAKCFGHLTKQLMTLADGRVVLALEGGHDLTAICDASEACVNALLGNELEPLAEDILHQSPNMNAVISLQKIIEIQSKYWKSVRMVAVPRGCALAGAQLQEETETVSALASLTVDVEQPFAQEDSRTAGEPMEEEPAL

IC50 (Human HDAC9)	IC50 (Recombinant human HDAC6)	IC50 (Human HDAC1)	IC50 (Human HDAC7)	IC50 (Human HDAC4)	IC50 (Human HDAC5)	SMILES
≤ 10000 nM	≤ 10000 nM	> 10000 nM	≤ 10000 nM	≤ 10000 nM	≤ 10000 nM	Fc1cnc(N(Cc2ccc(-c3noc(C(F)(F)F)n3)s2)c2cnccn2)nc1 [Example AX, 5-Fluoro-N-(pyrazin-2-yl)-N-({5-[5-(trifluoromethyl)-1,2,4-oxadiazol-3-yl]thiophen-2-yl}methyl)pyrimidin-2-amine]
≤ 1000 nM	≤ 10000 nM	> 10000 nM	≤ 500 nM	≤ 500 nM	≤ 500 nM	FC(F)(F)c1nc(-c2ccc(CN(c3cnccn3)c3cncnc3C3CC3)s2)no1 [Example CZ, 4-Cyclopropyl-N-(pyrazin-2-yl)-N-({5-[5-(trifluoromethyl)-1,2,4-oxadiazol-3-yl]thiophen-2-yl}methyl)pyrimidin-5-amine]
≤ 10000 nM	≤ 10000 nM	≤ 10000 nM	≤ 10000 nM	≤ 1000 nM	≤ 1000 nM	FC(F)(F)c1nc(-c2ccc(CN(c3cnccn3)c3cscn3)s2)no1 [Example T, N-(1,3-Thiazol-4-yl)-N-({5-[5-(trifluoromethyl)-1,2,4-oxadiazol-3-yl]thiophen-2-yl}methyl)pyrazin-2-amine]
≤ 1000 nM	≤ 500 nM	> 10000 nM	≤ 500 nM	≤ 500 nM	≤ 500 nM	FC(F)(F)c1nc(-c2ccc(CN(c3cccnc3)c3cnccn3)s2)no1 [Example AO, N-(Pyridin-3-yl)-N-({5-[5-(trifluoromethyl)-1,2,4-oxadiazol-3-yl]thiophen-2-yl}methyl)pyrazin-2-amine]

Further lines, the compound ahead of its results:

SMILES	IC50 (Human HDAC9)	IC50 (Recombinant human HDAC6)	IC50 (Human HDAC1)	IC50 (Human HDAC7)	IC50 (Human HDAC4)	IC50 (Human HDAC5)
FC(F)(F)c1nc(-c2ccc(CN(c3cnccn3)c3ccc4nccn4n3)s2)no1 [Example DT, N-{Imidazo[1,2-b]pyridazin-6-yl}-N-({5-[5-(trifluoromethyl)-1,2,4-oxadiazol-3-yl]thiophen-2-yl}methyl)pyrazin-2-amine]	≤ 1000 nM	≤ 1000 nM	> 10000 nM	≤ 500 nM	≤ 1000 nM	≤ 500 nM
Cn1ccc2nc(N(Cc3ccc(-c4noc(C(F)(F)F)n4)s3)c3cnccn3)cnc21 [Example BO, N-{5-Methyl-5H-pyrrolo[2,3-b]pyrazin-2-yl}-N-({5-[5-(trifluoromethyl)-1,2,4-oxadiazol-3-yl]thiophen-2-yl}methyl)pyrazin-2-amine]	≤ 10000 nM	≤ 10000 nM	> 10000 nM	≤ 10000 nM	≤ 10000 nM	≤ 10000 nM
FC(F)(F)c1nc(-c2ccc(CN(c3ccc(N4CCOCC4)cn3)c3cnccn3)s2)no1 [Example AD, N-[5-(Morpholin-4-yl)pyridin-2-yl]-N-({5-[5-(trifluoromethyl)-1,2,4-oxadiazol-3-yl]thiophen-2-yl}methyl)pyrazin-2-amine]	≤ 10000 nM	≤ 10000 nM	≤ 10000 nM	≤ 10000 nM	≤ 10000 nM	≤ 10000 nM
FC(F)(F)c1nc(-c2ccc(CN(c3cnccn3)c3cccnn3)s2)no1 [Example DD, N-(Pyrazin-2-yl)-N-({5-[5-(trifluoromethyl)-1,2,4-oxadiazol-3-yl]thiophen-2-yl}methyl)pyridazin-3-amine]	≤ 10000 nM	≤ 10000 nM	> 10000 nM	≤ 10000 nM	≤ 1000 nM	≤ 10000 nM
FC(F)(F)c1nc(-c2ccc(CN(c3cnccn3)c3ccc(-n4cccn4)nn3)s2)no1 [Example DM, N-(Pyrazin-2-yl)-6-(1H-pyrazol-1-yl)-N-({5-[5-(trifluoromethyl)-1,2,4-oxadiazol-3-yl]thiophen-2-yl}methyl)pyridazin-3-amine]	≤ 1000 nM	≤ 1000 nM	≤ 10000 nM	≤ 1000 nM	≤ 500 nM	≤ 1000 nM
FC(F)(F)c1cnnc(N(Cc2ccc(-c3noc(C(F)(F)F)n3)s2)c2ccc(N3CCOCC3)nn2)c1 [Example EX, 6-(Morpholin-4-yl)-N-({5-[5-(trifluoromethyl)-1,2,4-oxadiazol-3-yl]thiophen-2-yl}methyl)-N-[5-(trifluoromethyl)pyridazin-3-yl]pyridazin-3-amine]	≤ 10000 nM	≤ 1000 nM	≤ 10000 nM	≤ 10000 nM	≤ 10000 nM	≤ 10000 nM
